In PubChem BioAssay AID1259407 (Chemical Carcinogenesis Research Information System (CCRIS), 2018):
Activity calls are given as the source filed them. How the calls were made is not given here.

Test system: CCRIS mutagenicity, Ames/micronucleus/aberration tests
Experiment: CCRIS mutagenicity studies
Conditions: Method: PREINCUBATION

Measured: mutagenic call

CCCCO[C@@H](CC)CO
inactive: Test System: AMES SALMONELLA TYPHIMURIUM, Strain/Indicator: TA98, Metabolic Activation: NONE inactive; negative | Test System: AMES SALMONELLA TYPHIMURIUM, Strain/Indicator: TA98, Metabolic Activation: RAT LIVER S-9, PHENOBARBITAL AND BETA-NAPHTHOFLAVONE inactive; negative | Test System: AMES SALMONELLA TYPHIMURIUM, Strain/Indicator: TA100, Metabolic Activation: NONE inactive; negative | Test System: AMES SALMONELLA TYPHIMURIUM, Strain/Indicator: TA100, Metabolic Activation: RAT LIVER S-9, PHENOBARBITAL AND BETA-NAPHTHOFLAVONE inactive; negative | Test System: AMES SALMONELLA TYPHIMURIUM, Strain/Indicator: TA1535, Metabolic Activation: NONE inactive; negative | Test System: AMES SALMONELLA TYPHIMURIUM, Strain/Indicator: TA1535, Metabolic Activation: RAT LIVER S-9, PHENOBARBITAL AND BETA-NAPHTHOFLAVONE inactive; negative | Test System: AMES SALMONELLA TYPHIMURIUM, Strain/Indicator: TA1537, Metabolic Activation: NONE inactive; negative | Test System: AMES SALMONELLA TYPHIMURIUM, Strain/Indicator: TA1537, Metabolic Activation: RAT LIVER S-9, PHENOBARBITAL AND BETA-NAPHTHOFLAVONE inactive; negative | Test System: E.COLI, Strain/Indicator: WP2UVRA/PKM101, Metabolic Activation: NONE inactive; negative | Test System: E.COLI, Strain/Indicator: WP2UVRA/PKM101, Metabolic Activation: RAT LIVER S-9, PHENOBARBITAL AND BETA-NAPHTHOFLAVONE inactive; negative
